One experiment addresses HLA-B*3501 (Homo sapiens, UniProt P01889, A329T/A93T/A95T/C349S/D201E/D98Y/E176V/E187L/E204Q/E69T/I218V/K202T/L119I/Q94N/R155S/R180L/S121R/S35A/S48A/T118I/V127L/V306I/V36M/Y140S/Y91F). The experiment in a line: Purified HLA class I peptide binding assay, B*3501.
In the next experiment the target is HLA-B*5301 (Homo sapiens, UniProt P01889, A329T/A93T/A95T/C349S/D201E/D98Y/E176V/E187L/E204Q/E69T/G107R/I218V/K202T/L105A/L119I/N104I/Q94N/R106L/R155S/R180L/S101N/S121R/S35A/S48A/T118I/V127L/V306I/V36M/Y140S/Y91F). The experiment in a line: Purified HLA class I peptide binding assay, B*5301.
The next experiment deals with HLA-B*5401 (Homo sapiens, UniProt P01889, A329T/C349S/D138N/D201E/E176V/E187T/E204Q/E69G/I76V/K202T/L119W/R155S/R180L/S121T/S35A/S48A/V127L/V306I/V36M/Y140L). The experiment in a line: Purified HLA class I peptide binding assay, B*5401.
The next experiment concerns the target HLA-B*0702 (Homo sapiens, UniProt P01889). Put plainly: Purified HLA class I peptide binding assay, B*0702.
A further experiment has as its target HLA-B*5101 (B51) (Homo sapiens, UniProt P01889, A329T/A93T/A95T/C349S/D138N/D201E/D98Y/E187L/E204Q/E69T/G107R/I218V/K202T/L105A/L119W/N104I/Q94N/R106L/R155S/R180L/S101N/S121T/S35A/S48A/V306I/V36M/Y195H/Y91F). The experiment in a line: Purified HLA class I peptide binding assay, B51. As to conditions: binding affinity, HLA-B7 supermotif-bearing peptides.
Where [1] appears, read: binding affinity, HLA-B7 supermotif-bearing peptides.

Like-named read-outs stand apart in the source and are kept apart here.

In the case of `CC[C@H](C)[C@H](NC(=O)[C@@H]1CCCN1C(=O)[C@@H]1CCCN1C(=O)[C@H](Cc1ccc(O)cc1)NC(=O)[C@H](CO)NC(=O)[C@@H](NC(=O)[C@H](Cc1c[nH]cn1)NC(=O)[C@@H]1CCCN1C(=O)[C@@H](N)Cc1ccccc1)[C@@H](C)CC)C(=O)O`, the IC50 at HLA-B*3501 (setting [1]) came out at 360 nM; on HLA-B*5301 (setting [1]) it was 233 nM; on HLA-B*5401 (setting [1]), 1.4 nM; on HLA-B*0702 (setting [1]), 2.9 nM.

Turning to `CC[C@H](C)[C@H](NC(=O)[C@H](Cc1c[nH]cn1)NC(=O)[C@@H]1CCCN1C(=O)[C@@H](N)Cc1ccccc1)C(=O)N[C@@H](CO)C(=O)N[C@@H](Cc1ccc(O)cc1)C(=O)N1CCC[C@H]1C(=O)N1CCC[C@H]1C(=O)N[C@@H](CC(C)C)C(=O)O`, the IC50 was 177 nM on HLA-B*5101 (B51) (read-out: B*5101 nM), 490 nM on HLA-B*5301 (setting [1]), 3.8 nM on HLA-B*5401 (setting [1]) and 1.7 nM on HLA-B*0702 (setting [1]).

For the molecule `CC[C@H](C)[C@H](NC(=O)[C@@H](NC(=O)[C@H](Cc1ccc(O)cc1)NC(=O)[C@H](CC(C)C)NC(=O)[C@H](Cc1c[nH]cn1)NC(=O)CNC(=O)[C@@H](NC(=O)[C@@H]1CCCN1C(=O)[C@@H](N)Cc1ccccc1)[C@@H](C)CC)[C@@H](C)CC)C(=O)O`, the IC50 on HLA-B*5101 (B51) (read-out: B*5101 nM) came to 5 nM; on HLA-B*3501 (setting [1]), 77 nM; on HLA-B*5401 (setting [1]), 0.6 nM; on HLA-B*0702 (setting [1]), 3.4 nM.

In the case of `CC[C@H](C)[C@H](NC(=O)[C@H](Cc1ccc(O)cc1)NC(=O)[C@H](CC(C)C)NC(=O)[C@H](Cc1c[nH]cn1)NC(=O)[C@H](CO)NC(=O)[C@@H](NC(=O)[C@@H]1CCCN1C(=O)[C@@H](N)Cc1ccccc1)[C@@H](C)CC)C(=O)O`, the IC50 worked out at 42 nM on HLA-B*5101 (B51) (B*5101 nM); 655 nM at HLA-B*3501; 358 nM at HLA-B*5301; 59 nM on HLA-B*5401; 212 nM at HLA-B*0702.

As for `CC[C@H](C)[C@H](NC(=O)[C@@H](NC(=O)[C@H](Cc1ccc(O)cc1)NC(=O)[C@H](CC(C)C)NC(=O)[C@H](Cc1c[nH]cn1)NC(=O)[C@H](CO)NC(=O)[C@@H](NC(=O)[C@@H]1CCCN1C(=O)[C@@H](N)Cc1ccccc1)[C@@H](C)CC)[C@@H](C)CC)C(=O)O`, the IC50 on HLA-B*5101 (B51) (read-out: B*5101 nM) was 4.2 nM; on HLA-B*5301 (setting [1]), 4.4 nM; at HLA-B*5401 (setting [1]) it was 0.6 nM; on HLA-B*0702 (setting [1]), 2.9 nM.

For the molecule `CC[C@H](C)[C@H](NC(=O)[C@H](CC(C)C)NC(=O)[C@@H](NC(=O)[C@H](Cc1ccc(O)cc1)NC(=O)[C@H](CC(C)C)NC(=O)[C@H](Cc1c[nH]cn1)NC(=O)[C@H](CO)NC(=O)[C@@H](NC(=O)[C@@H]1CCCN1C(=O)[C@@H](N)Cc1ccccc1)[C@@H](C)CC)[C@@H](C)CC)C(=O)O`, the IC50 was 13 nM on HLA-B*5101 (B51) (read-out: B*5101 nM), 4.9 nM on HLA-B*5301 (setting [1]), 2.6 nM at HLA-B*5401 (setting [1]) and 97 nM at HLA-B*0702 (setting [1]).

With `CC[C@H](C)[C@H](NC(=O)[C@H](CC(C)C)NC(=O)[C@H](CC(C)C)NC(=O)CNC(=O)[C@H](C)NC(=O)[C@H](CCCCN)NC(=O)[C@@H]1CCCN1C(=O)[C@@H](N)Cc1ccccc1)C(=O)O`, the IC50 on HLA-B*5101 (B51) (read-out: B*5101 nM) is 8.2 nM; at HLA-B*3501 (setting [1]) it was over 10000 nM; at HLA-B*5301 (setting [1]), 775 nM.

As to `CC[C@H](C)[C@H](NC(=O)[C@@H](NC(=O)[C@@H](NC(=O)[C@H](CC(C)C)NC(=O)[C@H](CC(C)C)NC(=O)CNC(=O)[C@H](C)NC(=O)[C@H](CCCCN)NC(=O)[C@@H]1CCCN1C(=O)[C@@H](N)Cc1ccccc1)[C@@H](C)CC)[C@@H](C)CC)C(=O)O`, the IC50 on HLA-B*5101 (B51) (read-out: B*5101 nM) is 65 nM; on HLA-B*3501 (setting [1]), 2670 nM; at HLA-B*5301 (setting [1]), 846 nM; on HLA-B*0702 (setting [1]), 204 nM.

For `CC[C@H](C)[C@H](NC(=O)[C@H](CC(C)C)NC(=O)[C@H](CC(C)C)NC(=O)CNC(=O)[C@@H](NC(=O)[C@H](CCCCN)NC(=O)[C@@H]1CCCN1C(=O)[C@@H](N)Cc1ccccc1)[C@@H](C)O)C(=O)O`, the IC50 was 16 nM on HLA-B*5101 (B51) (read-out: B*5101 nM); over 10000 nM on HLA-B*3501 (setting [1]); 3320 nM on HLA-B*5301 (setting [1]); 37 nM at HLA-B*5401 (setting [1]); 134 nM on HLA-B*0702 (setting [1]).

`CC[C@H](C)[C@H](NC(=O)[C@@H](NC(=O)[C@H](CC(C)C)NC(=O)[C@H](CC(C)C)NC(=O)CNC(=O)[C@@H](NC(=O)[C@H](CCCCN)NC(=O)[C@@H]1CCCN1C(=O)[C@@H](N)Cc1ccccc1)[C@@H](C)O)[C@@H](C)CC)C(=O)O`: the IC50 is 32 nM at HLA-B*5101 (B51) (read-out: B*5101 nM), over 10000 nM on HLA-B*3501 (setting [1]), 266 nM at HLA-B*5301 (setting [1]) and 10 nM on HLA-B*5401 (setting [1]).

Turning to `CC[C@H](C)[C@H](NC(=O)[C@H](CO)NC(=O)[C@H](CCC(N)=O)NC(=O)[C@H](CO)NC(=O)[C@H](Cc1c[nH]c2ccccc12)NC(=O)[C@H](CC(C)C)NC(=O)[C@@H]1CCCN1C(=O)[C@@H](N)Cc1ccccc1)C(=O)O`, the IC50 at HLA-B*3501 (setting [1]) was 1010 nM; at HLA-B*5301 (setting [1]) it was 245 nM; at HLA-B*5401 (setting [1]), 15 nM; on HLA-B*0702 (setting [1]) it was 122 nM.

With `CC[C@H](C)[C@H](NC(=O)[C@H](CO)NC(=O)[C@H](CO)NC(=O)[C@H](C)NC(=O)CNC(=O)[C@H](CCC(N)=O)NC(=O)[C@@H]1CCCN1C(=O)[C@@H](N)Cc1ccccc1)C(=O)O`, the IC50 on HLA-B*3501 (setting [1]) was over 10000 nM; at HLA-B*5301 (setting [1]), 3000 nM; on HLA-B*5401 (setting [1]), 400 nM.

For the molecule `CC[C@H](C)[C@H](NC(=O)[C@H](CC(C)C)NC(=O)[C@H](C)NC(=O)[C@H](CCCNC(=N)N)NC(=O)[C@@H]1CCCN1C(=O)[C@@H](N)Cc1ccccc1)C(=O)N[C@@H](CCC(=O)O)C(=O)N[C@H](C(=O)N[C@@H](CO)C(=O)N[C@@H](Cc1ccc(O)cc1)C(=O)N[C@H](C(=O)O)C(C)C)[C@@H](C)O`, the IC50 amounted to 128 nM at HLA-B*5101 (B51) (read-out: B*5101 nM); 4500 nM on HLA-B*3501 (setting [1]); 7750 nM on HLA-B*5301 (setting [1]); 7.1 nM on HLA-B*5401 (setting [1]); 6.3 nM on HLA-B*0702 (setting [1]).

Consider `CC[C@H](C)[C@H](NC(=O)[C@H](Cc1ccc(O)cc1)NC(=O)[C@H](CO)NC(=O)[C@@H](NC(=O)[C@H](CCC(=O)O)NC(=O)[C@@H](NC(=O)[C@H](CC(C)C)NC(=O)[C@H](C)NC(=O)[C@H](CCCNC(=N)N)NC(=O)[C@@H]1CCCN1C(=O)[C@@H](N)Cc1ccccc1)C(C)C)[C@@H](C)O)C(=O)O`, for which the IC50 at HLA-B*5101 (B51) (read-out: B*5101 nM) came to 117 nM; on HLA-B*3501 (setting [1]), 5540 nM; at HLA-B*5301 (setting [1]), 620 nM; at HLA-B*5401 (setting [1]), 59 nM.

With `CC[C@H](C)[C@H](NC(=O)[C@H](CC(C)C)NC(=O)[C@H](CC(=O)O)NC(=O)[C@H](CCC(N)=O)NC(=O)[C@H](CCSC)NC(=O)[C@H](CC(C)C)NC(=O)[C@H](CC(C)C)NC(=O)[C@H](CCCCN)NC(=O)[C@H](CCCNC(=N)N)NC(=O)[C@@H]1CCCN1C(=O)[C@@H](N)Cc1ccccc1)C(=O)O`, the IC50 at HLA-B*5101 (B51) (read-out: B*5101 nM) is 367 nM; at HLA-B*3501 (setting [1]), over 10000 nM; at HLA-B*5401 (setting [1]) it was 100 nM; at HLA-B*0702 (setting [1]) it was 86 nM.

With `CC[C@H](C)[C@H](NC(=O)[C@@H]1CCCN1C(=O)[C@H](Cc1ccc(O)cc1)NC(=O)[C@H](CC(N)=O)NC(=O)[C@H](CCSC)NC(=O)[C@@H](NC(=O)[C@@H](NC(=O)[C@@H]1CCCN1C(=O)[C@@H](N)Cc1ccccc1)[C@@H](C)O)[C@@H](C)O)C(=O)O`, the IC50 at HLA-B*3501 (setting [1]) was 22 nM; on HLA-B*5301 (setting [1]), 8.5 nM; at HLA-B*5401 (setting [1]) it was 1.5 nM; at HLA-B*0702 (setting [1]) it was 59 nM.

In the case of `CSCC[C@H](NC(=O)[C@@H](NC(=O)[C@@H](NC(=O)[C@@H]1CCCN1C(=O)[C@@H](N)Cc1ccccc1)[C@@H](C)O)[C@@H](C)O)C(=O)N[C@@H](CC(N)=O)C(=O)N[C@@H](Cc1ccc(O)cc1)C(=O)N1CCC[C@H]1C(=O)N[C@@H](CC(C)C)C(=O)N[C@@H](Cc1c[nH]c2ccccc12)C(=O)O`, the IC50 on HLA-B*5101 (B51) (read-out: B*5101 nM) is over 10000 nM; on HLA-B*5401 (setting [1]), 42 nM; on HLA-B*0702 (setting [1]), 220 nM.

Source of the values: patent publication US20040053822A1, “Inducing cellular immune responses to mage2/3 using peptide and nucleic acid compositions” (priority 2002, published 2004).
